Assays:
PC9/ER cells = assay: Cell viability assay (CellTiter-Glo 2.0), erlotinib-resistant PC9/ER cells; format: cell-based; details: Homo sapiens, PC-9/ER; Table 4; 72 h drug treatment, combinations of EGFR TKIs and inhibitor of Formula (I); read-out: Relative cell viability; IC50 PC9ER
Text: (§1) To explore c-MET and AXL mechanisms of EGFR TKI resistance, resistant cells of the EGFR TKI hypersensitive EGFR exon 19 mutant NSCLC cell line, HCC827 and PC9 were generated by exposing these cells to increasing concentrations of EGFR TKI for over 3 months.
(§2) Gefitinib-resistant cells were referred to as HCC827/GR. […] Osimertinib-resistant cells were referred to as HCC827/OR.

HCC827/ER cells = assay: Cell viability assay (CellTiter-Glo 2.0), erlotinib-resistant HCC827/ER cells; format: cell-based, human; details: Homo sapiens, HCC827ER, Table 4, 72 h drug treatment, combinations of EGFR TKIs and inhibitor of Formula (I), read-out: Relative cell viability
Text: as §1, §2

HCC827/GR cells = assay: Cell viability assay (CellTiter-Glo 2.0), gefitinib-resistant HCC827/GR cells; format: cell-based, human; details: Homo sapiens, HCC827; Table 4; 72 h drug treatment, combinations of EGFR TKIs and inhibitor of Formula (I); read-out: Relative cell viability; IC50 HCC827GR
Text: as §1
The human cell line HCC827 was purchased from the American Type Culture Collection (Manassas, VA), and the PC9 cell line was obtained from RIKEN Cell Bank (Ibaraki, Japan). […] Gefitinib-resistant cells were referred to as HCC827/GR. […] Osimertinib-resistant cells were referred to as HCC827/OR.
(§3) Cell viability assays were carried out by plating 1,000 cells per well of HCC827 or PC9 resistant cells, respectively, into white transparent-bottom 384-well plates. The cells were treated with each TKI across a 10-dose range from 1 nM to 10,000 nM. After 72 h of drug treatment, cell viability was measured using the CellTiter-Glo 2.0 assay (Promega, Madison, WI).
as §3

HCC827/OR cells = assay: Cell viability assay (CellTiter-Glo 2.0), osimertinib-resistant HCC827/OR cells; format: cell-based, human; details: Homo sapiens, HCC827; Table 4; 72 h drug treatment, combinations of EGFR TKIs and inhibitor of Formula (I); read-out: Relative cell viability; IC50 HCC827OR
Text: as §1, §2

| IC50 (PC9/ER cells) | IC50 (HCC827/ER cells) | IC50 (HCC827/GR cells) | IC50 (HCC827/OR cells) | Compound |
| --- | --- | --- | --- | --- |
| < 0.1 µM | < 0.1 µM | < 0.1 µM | < 0.1 µM | Cc1nc(Cn2cc(C(=O)Nc3ccc(Oc4ccnc(N)c4C#CC(C)(C)N4CCOCC4)c(F)c3)c(=O)n(-c3ccc(F)cc3)c2=O)cs1 [Example 39, N-(4-((2-amino-3-(3-methyl-3-morpholinobut-1-yn-1-yl)pyridin-4-yl)oxy)-3-fluorophenyl)-3-(4-fluorophenyl)-1-((2-methylthiazol-4-yl)methyl)-2,4-dioxo-1,2,3,4-tetrahydropyrimidine-5-carboxamide] |
| < 1 µM | < 0.1 µM | < 0.1 µM | < 1 µM | Cc1nc(Cn2cc(C(=O)Nc3ccc(Oc4ccnc(N)c4C#CC(C)(C)N4CCN(C)CC4)c(F)c3)c(=O)n(-c3ccc(F)cc3)c2=O)cs1 [Example 42, N-(4-((2-amino-3-(3-methyl-3-(4-methylpiperazin-1-yl)but-1-yn-1-yl)pyridin-4-yl)oxy)-3-fluorophenyl)-3-(4-fluorophenyl)-1-((2-methylthiazol-4-yl)methyl)-2,4-dioxo-1,2,3,4-tetrahydropyrimidine-5-carboxamide] |
| < 1 µM | < 1 µM | < 0.1 µM | < 1 µM | Cc1nc(Cn2cc(C(=O)Nc3ccc(Oc4ccnc(N)c4C#CCC4CCNCC4)c(F)c3)c(=O)n(-c3ccc(F)cc3)c2=O)cs1 [Example 44, N-(4-((2-amino-3-(3-(piperidin-4-yl)prop-1-yn-1-yl)pyridin-4-yl)oxy)-3-fluorophenyl)-3-(4-fluorophenyl)-1-((2-methylthiazol-4-yl)methyl)-2,4-dioxo-1,2,3,4-tetrahydropyrimidine-5-carboxamide] |
| < 1 µM | < 1 µM | < 1 µM | < 10 µM | CN1CCC(CC#Cc2c(Oc3ccc(NC(=O)c4nn(C)c(=O)n(-c5ccc(F)cc5)c4=O)cc3F)ccnc2N)CC1 [Example 45, N-(4-((2-amino-3-(3-(1-methylpiperidin-4-yl)prop-1-yn-1-yl)pyridin-4-yl)oxy)-3-fluorophenyl)-4-(4-fluorophenyl)-2-methyl-3,5-dioxo-2,3,4,5-tetrahydro-1,2,4-triazine-6-carboxamide] |
| < 10 µM | < 10 µM | < 10 µM | < 10 µM | Cn1nc(C(=O)Nc2ccc(Oc3ccnc(N)c3C#CC(C)(C)N3CCNCC3)c(F)c2)c(=O)n(-c2ccc(F)cc2)c1=O [Example 47, N-(4-(2-amino-3-(3-methyl-3-(piperazin-1-yl)but-1-ynyl)pyridin-4-yloxy)-3-fluorophenyl)-4-(4-fluorophenyl)-2-methyl-3,5-dioxo-2,3,4,5-tetrahydro-1,2,4-triazine-6-carboxamide] |
| < 1 µM | < 1 µM | < 1 µM | < 1 µM | Cn1nc(C(=O)Nc2ccc(Oc3ccnc(N)c3C#CC(C)(C)N3CCOCC3)c(F)c2)c(=O)n(-c2ccc(F)cc2)c1=O [Example 48, N-(4-(2-amino-3-(3-methyl-3-morpholinobut-1-ynyl)pyridin-4-yloxy)-3-fluorophenyl)-4-(4-fluorophenyl)-2-methyl-3,5-dioxo-2,3,4,5-tetrahydro-1,2,4-triazine-6-carboxamide] |
| < 1 µM | < 1 µM | < 10 µM | < 1 µM | Nc1nccc(Oc2ccc(NC(=O)c3c[nH]c(=O)n(-c4ccc(F)cc4)c3=O)cc2F)c1C#CCN1CCOCC1 [Example 51, N-(4-(2-amino-3-(3-morpholinoprop-1-ynyl)pyridin-4-yloxy)-3-fluorophenyl)-3-(4-fluorophenyl)-2,4-dioxo-1,2,3,4-tetrahydropyrimidine-5-carboxamide] |
| < 10 µM | < 10 µM | < 10 µM | > 10 µM | CC(C)(C#Cc1c(Oc2ccc(NC(=O)c3c[nH]c(=O)n(-c4ccc(F)cc4)c3=O)cc2F)ccnc1N)N1CCNCC1 [Example 52, N-(4-(2-amino-3-(3-methyl-3-(piperazin-1-yl)but-1-ynyl)pyridin-4-yloxy)-3-fluorophenyl)-3-(4-fluorophenyl)-2,4-dioxo-1,2,3,4-tetrahydropyrimidine-5-carboxamide] |
| < 1 µM | < 1 µM | < 1 µM | < 1 µM | CN1CCC(CC#Cc2c(Oc3ccc(NC(=O)c4c[nH]c(=O)n(-c5ccc(F)cc5)c4=O)cc3F)ccnc2N)CC1 [Example 54, N-(4-(2-amino-3-(3-(1-methylpiperidin-4-yl)prop-1-ynyl)pyridin-4-yloxy)-3-fluorophenyl)-3-(4-fluorophenyl)-2,4-dioxo-1,2,3,4-tetrahydropyrimidine-5-carboxamide] |
| < 1 µM | < 0.1 µM | < 0.1 µM | < 1 µM | CC(C)(C#Cc1c(Oc2ccc(NC(=O)c3cn(C4CCOCC4)c(=O)n(-c4ccc(F)cc4)c3=O)cc2F)ccnc1N)N1CCOCC1 [Example 55, N-(4-(2-amino-3-(3-methyl-3-morpholinobut-1-ynyl)pyridin-4-yloxy)-3-fluorophenyl)-3-(4-fluorophenyl)-2,4-dioxo-1-(tetrahydro-2H-pyran-4-yl)-1,2,3,4-tetrahydropyrimidine-5-carboxamide] |

Continued, molecule first:

| Compound | IC50 (PC9/ER cells) | IC50 (HCC827/ER cells) | IC50 (HCC827/GR cells) | IC50 (HCC827/OR cells) |
| --- | --- | --- | --- | --- |
| Cc1nc(Cn2cc(C(=O)Nc3ccc(Oc4ccnc(N)c4C#CCN4CCOCC4)c(F)c3)c(=O)n(-c3ccc(F)cc3)c2=O)cs1 [Example 40, N-(4-((2-amino-3-(3-morpholinoprop-1-yn-1-yl)pyridin-4-yl)oxy)-3-fluorophenyl)-3-(4-fluorophenyl)-1-((2-methylthiazol-4-yl)methyl)-2,4-dioxo-1,2,3,4-tetrahydropyrimidine-5-carboxamide] | < 0.1 µM | < 0.1 µM | < 0.1 µM | < 1 µM |
| Cc1nc(Cn2cc(C(=O)Nc3ccc(Oc4ccnc(N)c4C#CC(C)(C)N4CCNCC4)c(F)c3)c(=O)n(-c3ccc(F)cc3)c2=O)cs1 [Example 41, N-(4-((2-amino-3-(3-methyl-3-(piperazin-1-yl)but-1-yn-1-yl)pyridin-4-yl)oxy)-3-fluorophenyl)-3-(4-fluorophenyl)-1-((2-methylthiazol-4-yl)methyl)-2,4-dioxo-1,2,3,4-tetrahydropyrimidine-5-carboxamide] | < 1 µM | < 1 µM | < 1 µM | < 1 µM |
| Cc1nc(Cn2cc(C(=O)Nc3ccc(Oc4ccnc(N)c4C#CCC4CCN(C)CC4)c(F)c3)c(=O)n(-c3ccc(F)cc3)c2=O)cs1 [Example 43, N-(4-((2-amino-3-(3-(1-methylpiperidin-4-yl)prop-1-yn-1-yl)pyridin-4-yl)oxy)-3-fluorophenyl)-3-(4-fluorophenyl)-1-((2-methylthiazol-4-yl)methyl)-2,4-dioxo-1,2,3,4-tetrahydropyrimidine-5-carboxamide] | < 0.1 µM | < 0.1 µM | < 0.1 µM | < 1 µM |
| Cn1nc(C(=O)Nc2ccc(Oc3ccnc(N)c3C#CCC3CCNCC3)c(F)c2)c(=O)n(-c2ccc(F)cc2)c1=O [Example 46, N-(4-((2-amino-3-(3-(piperidin-4-yl)prop-1-yn-1-yl)pyridin-4-yl)oxy)-3-fluorophenyl)-4-(4-fluorophenyl)-2-methyl-3,5-dioxo-2,3,4,5-tetrahydro-1,2,4-triazine-6-carboxamide] | < 10 µM | < 10 µM | < 1 µM | < 10 µM |
| Cn1nc(C(=O)Nc2ccc(Oc3ccnc(N)c3C#CCN3CCOCC3)c(F)c2)c(=O)n(-c2ccc(F)cc2)c1=O [Example 49, N-(4-(2-amino-3-(3-morpholinoprop-1-ynyl)pyridin-4-yloxy)-3-fluorophenyl)-4-(4-fluorophenyl)-2-methyl-3,5-dioxo-2,3,4,5-tetrahydro-1,2,4-triazine-6-carboxamide] | < 1 µM | < 10 µM | < 1 µM | < 10 µM |
| CC(C)(C#Cc1c(Oc2ccc(NC(=O)c3c[nH]c(=O)n(-c4ccc(F)cc4)c3=O)cc2F)ccnc1N)N1CCOCC1 [Example 50, N-(4-(2-amino-3-(3-methyl-3-morpholinobut-1-ynyl)pyridin-4-yloxy)-3-fluorophenyl)-3-(4-fluorophenyl)-2,4-dioxo-1,2,3,4-tetrahydropyrimidine-5-carboxamide] | < 0.1 µM | < 0.1 µM | < 1 µM | < 0.1 µM |
| Nc1nccc(Oc2ccc(NC(=O)c3c[nH]c(=O)n(-c4ccc(F)cc4)c3=O)cc2F)c1C#CCC1CCNCC1 [Example 53, N-(4-(2-amino-3-(3-(piperidin-4-yl)prop-1-ynyl)pyridin-4-yloxy)-3-fluorophenyl)-3-(4-fluorophenyl)-2,4-dioxo-1,2,3,4-tetrahydropyrimidine-5-carboxamide] | < 10 µM | < 1 µM | < 10 µM | < 10 µM |

Source: patent US12421207B2 (CMG Pharmaceutical Co., Ltd., priority 2022, dated 2025)
